Laboratory results published in patent US8895746B2 (University of Central Florida Research Foundation, Inc., priority 2009, dated 2014).

How the values were obtained:
[1] = test system: MDA-MB-231, Panc-1 and NIH3T3/v-Src cells; experiment: Wound healing assay for migration; format: cell-based, human, mouse
Source text: (§1) Wounds were made using pipette tips in monolayer cultures of cells in six-well plates. […] The migration of cells was visualized at a 10× magnification using an Axiovert 200 Inverted Fluorescence Microscope (Zeiss, Göttingen Germany), with pictures taken using a mounted Canon Powershot A640 digital camera (Canon USA, Lake Success, N.Y.). Cells that migrated into the denuded area were quantified. Mice and in vivo tumor studies-Six-week-old female athymic nude mice were purchased from Harlan and maintained in the institutional animal facilities approved by the American Association for Accreditation of Laboratory Animal Care. Athymic nude mice were injected subcutaneously in the left flank area with 5×10^6 human breast cancer MDA-MB-231 cells in 100 μL of PBS. After 5 to 10 days, tumors of a diameter of 3 mm were established. […] Tumor volume was calculated according to the formula V=0.52×a^2×b, where a, smallest superficial diameter, b, largest superficial diameter.

[2] = target: T1, Stat3 association with EGFR (Homo sapiens, UniProt P40763); experiment: Co-immunoprecipitation of EGFR immunecomplex from treated Panc-1 and MDA-MB-231 cells; format: cell-based
T1 construct: immunoprecipitated from whole-cell lysates prepared from treated and untreated cancer cells and blotted for Stat3; endogenous in cells; host or cells: Panc-1 and MDA-MB-231 cells
T1 sequence (P40763 2-770 limits assumed): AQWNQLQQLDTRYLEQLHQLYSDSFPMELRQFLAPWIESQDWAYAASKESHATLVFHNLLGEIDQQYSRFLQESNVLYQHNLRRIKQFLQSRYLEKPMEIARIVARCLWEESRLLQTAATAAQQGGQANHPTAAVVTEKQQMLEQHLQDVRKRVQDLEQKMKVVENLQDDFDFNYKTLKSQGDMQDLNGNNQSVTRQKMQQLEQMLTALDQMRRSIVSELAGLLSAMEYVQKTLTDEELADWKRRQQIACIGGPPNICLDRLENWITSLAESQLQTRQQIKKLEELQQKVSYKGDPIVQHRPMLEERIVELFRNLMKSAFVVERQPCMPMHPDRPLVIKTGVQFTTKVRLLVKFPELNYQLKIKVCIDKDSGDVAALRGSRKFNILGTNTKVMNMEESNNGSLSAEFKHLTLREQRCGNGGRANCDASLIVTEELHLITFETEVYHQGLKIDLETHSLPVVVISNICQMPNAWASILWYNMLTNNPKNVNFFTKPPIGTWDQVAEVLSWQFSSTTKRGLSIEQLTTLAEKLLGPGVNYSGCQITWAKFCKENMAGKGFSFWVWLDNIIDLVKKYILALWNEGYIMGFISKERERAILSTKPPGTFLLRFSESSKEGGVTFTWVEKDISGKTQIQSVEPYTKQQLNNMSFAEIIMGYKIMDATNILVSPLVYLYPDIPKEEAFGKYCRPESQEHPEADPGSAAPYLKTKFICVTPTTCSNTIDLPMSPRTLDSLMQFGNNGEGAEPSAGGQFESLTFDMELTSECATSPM
Experimental: Immunoprecipitation from whole-cell lysates and SDS/PAGE and Western blotting analysis were performed as previously described (33,38).
Cells were then subjected to immunostaining for EGFR (red) and Stat3 (green) and analyzed by confocal microscopy for EGF-induced colocalization of Stat3 and EGFR and for Stat3 nuclear translocation, as previously performed (17). In the resting NIH3T3/hEGFR fibroblasts, EGFR (red) is widely localized at the plasma membrane, while Stat3 (green) is localized at both the plasma membrane and in the cytoplasm, with a minimal colocalization with EGFR at the plasma membrane and no visible presence in the nucleus (stained blue for DAPI) (FIG. 4A upper panel).

His-tagged Stat3 = target: T2, His-tagged Stat3 (Mus musculus, UniProt P42227); experiment: Surface Plasmon Resonance analysis of binding to immobilized His-tagged Stat3; parameters: species or system murine
T2 construct: Coding regions for the murine Stat3 protein; made in house; host or cells: E. coli BL21(DE3)
T2 sequence (P42227 whole entry): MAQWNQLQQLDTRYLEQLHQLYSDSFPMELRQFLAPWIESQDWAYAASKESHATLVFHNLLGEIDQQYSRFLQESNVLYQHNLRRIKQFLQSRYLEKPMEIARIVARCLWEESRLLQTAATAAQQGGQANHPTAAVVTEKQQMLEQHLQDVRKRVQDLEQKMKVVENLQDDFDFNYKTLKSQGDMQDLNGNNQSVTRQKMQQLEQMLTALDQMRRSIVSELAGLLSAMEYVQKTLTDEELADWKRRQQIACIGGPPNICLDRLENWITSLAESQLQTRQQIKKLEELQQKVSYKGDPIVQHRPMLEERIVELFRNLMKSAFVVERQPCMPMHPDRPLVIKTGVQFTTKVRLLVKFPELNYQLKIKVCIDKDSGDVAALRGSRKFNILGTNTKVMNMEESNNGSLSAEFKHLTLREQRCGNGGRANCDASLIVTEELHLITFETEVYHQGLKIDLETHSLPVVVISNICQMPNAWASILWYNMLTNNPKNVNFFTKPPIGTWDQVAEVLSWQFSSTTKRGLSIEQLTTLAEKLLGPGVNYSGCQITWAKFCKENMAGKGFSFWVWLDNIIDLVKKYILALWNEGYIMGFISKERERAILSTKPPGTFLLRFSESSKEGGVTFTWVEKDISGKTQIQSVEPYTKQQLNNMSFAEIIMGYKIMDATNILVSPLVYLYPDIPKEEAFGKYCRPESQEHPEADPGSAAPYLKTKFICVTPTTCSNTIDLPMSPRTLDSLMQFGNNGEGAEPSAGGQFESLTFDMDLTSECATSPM
Source text: Coding regions for the murine Stat3 protein and Stat3 SH2 domain were amplified by PCR and cloned into vectors pET-44 Ek/LIC (Novagen) and pET SUMO (Invitrogen), respectively.
Clones were sequenced to verify the correct sequences and orientation. His-tagged recombinant proteins were expressed in BL21(DE3) cells, and purified on Ni-ion sepharose column.
SensiQ and its analysis software Qdat (ICX Technologies, Oklahoma City, Okla.) were used to analyze the interaction between agents and the Stat3 protein and to determine the binding affinity. Purified Stat3 was immobilized on a HisCap Sensor Chip by injecting 50 µg/ml of Stat3 onto the chip. […] The association and dissociation rate constants were calculated using the Qdat software. The ratio of the association and dissociation rate constants was determined as the affinity (KD).
To provide definitive evidence of direct binding to Stat3, biophysical studies were performed. H1s-tagged Stat3 protein (or SH2 domain; 50 ng) was immobilized on a Ni-NTA sensor chip surface for Surface Plasmon Resonance analysis of the binding of 531201.1066 as the analyte. Association and dissociation measurements were taken and the binding affinity of S31-201.1066 for Stat3 was determined using Qdat software.

Stat5:Stat5 complex = experiment: EMSA selectivity, nuclear extracts of EGF-stimulated NIH3T3/hEGFR, MGFe probe; format: biochemical, mouse; conditions: up to 300 μM
Experimental: (§2) Nuclear extract preparations and electrophoretic mobility shift assay (EMSA) were carried out as previously described (28,33). […] Except where indicated, nuclear extracts were pre-incubated with compound for 30 min at room temperature prior to incubation with the radiolabeled probe for 30 min at 30° C. before subjecting to EMSA analysis.

NIH3T3/v-Ras fibroblasts = experiment: Wound healing assay for migration; format: cell-based, mouse; conditions: same treatment conditions
Source text: as §1

Stat1:Stat1 complex = target: T3, Stat1:Stat1 complex (Mus musculus, UniProt P42225); experiment: EMSA selectivity, nuclear extracts of EGF-stimulated NIH3T3/hEGFR, hSIE probe; format: biochemical
T3 construct: endogenous in cells; host or cells: EGF-stimulated NIH3T3/hEGFR mouse fibroblasts (nuclear extract)
T3 sequence (P42225 2-749 limits assumed): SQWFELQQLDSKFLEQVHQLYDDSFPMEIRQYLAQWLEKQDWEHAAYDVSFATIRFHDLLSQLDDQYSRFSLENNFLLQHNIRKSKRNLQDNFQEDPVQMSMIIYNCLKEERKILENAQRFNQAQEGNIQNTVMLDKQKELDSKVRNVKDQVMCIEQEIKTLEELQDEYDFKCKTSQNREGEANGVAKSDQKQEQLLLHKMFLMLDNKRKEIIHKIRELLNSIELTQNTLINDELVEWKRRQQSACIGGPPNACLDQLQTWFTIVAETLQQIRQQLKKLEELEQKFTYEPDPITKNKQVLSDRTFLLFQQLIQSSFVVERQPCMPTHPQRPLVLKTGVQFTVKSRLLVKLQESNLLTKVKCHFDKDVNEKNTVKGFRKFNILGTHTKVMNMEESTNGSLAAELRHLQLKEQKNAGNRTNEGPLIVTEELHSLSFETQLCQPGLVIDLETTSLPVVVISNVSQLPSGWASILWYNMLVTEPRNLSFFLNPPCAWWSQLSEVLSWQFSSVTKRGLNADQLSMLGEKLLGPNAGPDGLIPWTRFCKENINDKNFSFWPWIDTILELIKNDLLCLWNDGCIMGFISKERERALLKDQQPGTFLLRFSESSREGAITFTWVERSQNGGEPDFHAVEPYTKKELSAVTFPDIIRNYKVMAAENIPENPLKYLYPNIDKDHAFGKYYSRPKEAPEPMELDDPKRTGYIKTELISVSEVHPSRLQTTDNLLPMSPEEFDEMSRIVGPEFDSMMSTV
Experimental: as §2

Stat3:Stat3 complex = target: T4, Stat3:Stat3 complex (Mus musculus, UniProt P42227); experiment: as above; format: biochemical
T4 construct: endogenous in cells; host or cells: EGF-stimulated NIH3T3/hEGFR mouse fibroblasts (nuclear extract)
T4 sequence (P42227 2-770 limits assumed, one chain of several): as the sequence (P40763 2-770 limits assumed) above, with E759D counted along it
Experimental: as §2

Stat1:Stat3 complex = target: T5, Stat1:Stat3 complex (Mus musculus, UniProt P42227); experiment: as above; format: biochemical
T5 construct: endogenous in cells; host or cells: EGF-stimulated NIH3T3/hEGFR mouse fibroblasts (nuclear extract)
T5 sequence (P42227 2-770 limits assumed, one chain of several): as the sequence (P40763 2-770 limits assumed) above, with E759D counted along it
Experimental: as §2

[3] = test system: NIH3T3, Stat3-null MEFs (Stat3−/−), HPDEC, TE71; experiment: Viability and growth (CyQuant, trypan blue exclusion), cells without aberrant Stat3; format: cell-based, mouse, human; conditions: up to 200 μM
Source text: Aberrant Stat3 promotes malignant cell proliferation, survival and malignant transformation (10, 20, 42). Given that S3I201.1066 disrupts Stat3 activation, we asked the question whether this agent is able to selectively decrease the viability and growth of malignant cells that harbor aberrant Stat3 activity.

Cc1ccc(S(=O)(=O)N(C)CC(=O)N(Cc2ccc(C3CCCCC3)cc2)c2ccc(C(=O)O)c(O)c2)cc1 [S3I-201.1066]
numbers of cells migrating into the denuded area ([1]; 30 µM): statistically lower numbers | numbers of cells migrating into the denuded area ([1]; 12-24 h treatment): Significantly reduced numbers | apoptosis of the treated cells ([1]; 12-24 h treatment, data not shown): no evidence of apoptosis | numbers of cells migrating into the denuded area ([1]; 50 or 100 μM): strongly reduced numbers | Shc or Grb 2 levels associated with EGFR in the complex [2]: without affecting | level of Stat3 associated with EGFR in the immunecomplex [2]: significantly diminished | levels of activated and total Erk1/2 in whole-cell lysates [2]: unaffected | Kd (His-tagged Stat3; affinity (KD) for Stat3 or the SH2 domain, SPR): 2300 nM | Kd (His-tagged Stat3; binding affinity, Ko / KD for Stat3, SPR, immobilized His-Stat3): 2.74 nM | effect on Stat5:Stat5 complex with the MGFe probe (Stat5:Stat5 complex): no effect | migration (NIH3T3/v-Ras fibroblasts): minimally affected | inhibition of Stat1:Stat1 complex (Stat1:Stat1 complex; 50 μM): no significant inhibition | inhibition of Stat1:Stat1 complex (Stat1:Stat1 complex; 100 μM): moderate inhibition | inhibition of Stat1:Stat1 complex (Stat1:Stat1 complex; 200 μM): complete inhibition | effect on Stat3:Stat3 complex with hSIE probe (Stat3:Stat3 complex; 50 μM): significantly disrupted | effect on Stat3:Stat3 complex with hSIE probe (Stat3:Stat3 complex; 100 μM): completely disrupted | effect on Stat1:Stat3 complex (Stat1:Stat3 complex; 50 μM): similarly repressed | effect on Stat1:Stat3 complex (Stat1:Stat3 complex; 100 μM): completely disrupted | viability and growth [3]: not significantly altered
